# From patent US20260347347A1, “2-AZA-AND 2-OXABICYCLO[2.1.1]HEXANE DERIVATIVES AS FACTOR XIIA ENZYME INHIBITORS” (KALVISTA PHARMACEUTICALS LIMITED, priority 2022, published 2026)
# Biological target: T1, Human Factor XIIa (Homo sapiens, UniProt P00748)
# T1 construct: purchased Enzyme Research Laboratories
# T1 sequence (P00748 373-615 limits assumed): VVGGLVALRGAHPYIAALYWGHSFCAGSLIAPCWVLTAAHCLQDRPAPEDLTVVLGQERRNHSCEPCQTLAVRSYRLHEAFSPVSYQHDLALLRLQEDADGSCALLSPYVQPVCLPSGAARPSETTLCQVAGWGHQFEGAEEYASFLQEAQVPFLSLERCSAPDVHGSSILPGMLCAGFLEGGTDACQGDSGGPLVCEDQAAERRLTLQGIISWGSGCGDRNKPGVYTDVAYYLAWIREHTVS
# T1 sequence (P00748 20-372 partner limits assumed): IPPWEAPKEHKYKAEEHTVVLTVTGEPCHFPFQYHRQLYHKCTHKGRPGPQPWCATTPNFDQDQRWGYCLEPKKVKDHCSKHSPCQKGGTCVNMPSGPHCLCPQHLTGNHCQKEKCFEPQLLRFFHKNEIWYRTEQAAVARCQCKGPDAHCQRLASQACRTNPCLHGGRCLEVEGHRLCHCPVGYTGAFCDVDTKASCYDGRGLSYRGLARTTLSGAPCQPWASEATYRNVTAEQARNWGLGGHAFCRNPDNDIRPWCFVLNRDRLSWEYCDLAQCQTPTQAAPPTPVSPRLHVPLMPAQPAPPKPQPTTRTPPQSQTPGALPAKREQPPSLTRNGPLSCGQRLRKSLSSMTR
# Test: Determination of FXIIa inhibition (in vitro IC50 assay, fluorogenic substrate H-DPro-Phe-Arg-AFC)
# Assay type: biochemical
# Conditions: human Factor XIIa, fluorogenic substrate H-DPro-Phe-Arg-AFC at Km concentration, 5 min, 25 °C; for IC50: class symbols, read-out: Human FXIIa IC50
# Protocol: In vitro inhibition of Factor XIIa was determined using an IC50 assay based on standard literature methods (see e.g Baeriswyl et al., ACS Chem. Biol., 2015, 10 (8) 1861; Bouckaert et al., European Journal of Medicinal Chemistry 110 (2016) 181). Human Factor XIIa (Enzyme Research Laboratories) was incubated at 25 °C with the fluorogenic substrate H-DPro-Phe-Arg-AFC (Peptide Protein Science) and various concentrations of the test compound. Protease activity was measured by monitoring the accumulation of liberated fluorescence from the substrate over 5 min at 25 °C. The linear rate of fluorescence increase per minute was expressed as percentage (%) activity. The Km for the cleavage of the substrate by FXIIa was determined by standard transformation of the Michaelis-Menten equation. The compound inhibitor assays were performed at substrate Km concentration. IC50 values were calculated as the concentration of inhibitor giving 50% inhibition (IC50) of the uninhibited enzyme activity (100%).
IC50 [nM],Human FXIIa inhibition (compounds that did not achieve 50% inhibition) (class symbols H1/H2 for % inhibition at top concentration),Compound
100 to 300,,"Cn1ccc(OCC23CN(C(=O)C(C)(C)Cc4ccccc4)C(CNc4cccc5c(N)nccc45)(C2)C3)cc1=O [Example 7, 4-((1-(((1-aminoisoquinolin-5-yl)amino)methyl)-2-(2,2-dimethyl-3-phenylpropanoyl)-2-azabicyclo[2.1.1]hexan-4-yl)methoxy)-1-methylpyridin-2(1H)-one]"
10 to 100,,"C[C@@H](C(=O)N1CC2(COc3ccn(C)c(=O)c3)CC1(CNc1cccc3c(N)nccc13)C2)c1ccccc1 [Example 12, (R)-4-((1-(((1-aminoisoquinolin-5-yl)amino)methyl)-2-(2-phenylpropanoyl)-2-azabicyclo[2.1.1]hexan-4-yl)methoxy)-1-methylpyridin-2(1H)-one]"
1 to 10,,"Cn1ccc(OCC23CN(C(=O)Cc4ccc5c(c4)CCO5)C(CNc4cccc5c(N)nccc45)(C2)C3)cc1=O [Example 3, 4-((1-(((1-aminoisoquinolin-5-yl)amino)methyl)-2-(2-(2,3-dihydrobenzofuran-5-yl)acetyl)-2-azabicyclo[2.1.1]hexan-4-yl)methoxy)-1-methylpyridin-2(1H)-one]"
10 to 100,,"Cc1cc(OCC23CN(C(=O)N4CCC(c5ccccc5)CC4)C(CNc4cccc5c(N)nccc45)(C2)C3)cc(=O)n1C [Example 70, 4-((1-(((1-aminoisoquinolin-5-yl)amino)methyl)-2-(4-phenylpiperidine-1-carbonyl)-2-azabicyclo[2.1.1]hexan-4-yl)methoxy)-1,6-dimethylpyridin-2(1H)-one]"
100 to 300,,"COc1ccc2c(c1)CCCN2C(=O)N1CC2(COc3ccn(C)c(=O)c3)CC1(CNc1cccc3c(N)nccc13)C2 [Example 39, 4-((1-(((1-aminoisoquinolin-5-yl)amino)methyl)-2-(6-methoxy-1,2,3,4-tetrahydroquinoline-1-carbonyl)-2-azabicyclo[2.1.1]hexan-4-yl)methoxy)-1-methylpyridin-2(1H)-one]"
10 to 100,,"Cn1ccc(OCC23CN(C(=O)N4CCOc5ccccc54)C(CNc4cccc5c(N)nccc45)(C2)C3)cc1=O [Example 35, 4-((1-(((1-aminoisoquinolin-5-yl)amino)methyl)-2-(3,4-dihydro-2H-benzo[b][1,4]oxazine-4-carbonyl)-2-azabicyclo[2.1.1]hexan-4-yl)methoxy)-1-methylpyridin-2(1H)-one]"
10 to 100,,"C[C@@H](NC(=O)N1CC2(COc3ccn(C)c(=O)c3)CC1(CNc1cccc3c(N)nccc13)C2)c1ccccc1 [Example 33, (R)-1-(((1-aminoisoquinolin-5-yl)amino)methyl)-4-(((1-methyl-2-oxo-1,2-dihydropyridin-4-yl)oxy)methyl)-N-(1-phenylethyl)-2-azabicyclo[2.1.1]hexane-2-carboxamide]"
10 to 100,,"Cc1cc(OCC23CN(C(=O)N4CC[C@H](c5ccccc5)C4)C(CNc4cccc5c(N)nccc45)(C2)C3)cc(=O)n1C [Example 49, (R)-4-((1-(((1-aminoisoquinolin-5-yl)amino)methyl)-2-(3-phenylpyrrolidine-1-carbonyl)-2-azabicyclo[2.1.1]hexan-4-yl)methoxy)-1,6-dimethylpyridin-2(1H)-one]"
100 to 300,,"Cn1ccc(OCC23CN(C(=O)C4(Oc5ccccc5)CC4)C(CNc4cccc5c(N)nccc45)(C2)C3)cc1=O [Example 6, 4-((1-(((1-aminoisoquinolin-5-yl)amino)methyl)-2-(1-phenoxycyclopropane-1-carbonyl)-2-azabicyclo[2.1.1]hexan-4-yl)methoxy)-1-methylpyridin-2(1H)-one]"
100 to 300,,"Cn1ccc(OCC23CN(C(=O)C4(c5ccccc5)CC4)C(CNc4cccc5c(N)nccc45)(C2)C3)cc1=O [Example 18, 4-((1-(((1-aminoisoquinolin-5-yl)amino)methyl)-2-(1-phenylcyclopropane-1-carbonyl)-2-azabicyclo[2.1.1]hexan-4-yl)methoxy)-1-methylpyridin-2(1H)-one]"
10 to 100,,"Cn1ccc(OCC23CN(C(=O)C[C@H]4CCOC4)C(CNc4cccc5c(N)nccc45)(C2)C3)cc1=O [Example 10, (R)-4-((1-(((1-aminoisoquinolin-5-yl)amino)methyl)-2-(2-(tetrahydrofuran-3-yl)acetyl)-2-azabicyclo[2.1.1]hexan-4-yl)methoxy)-1-methylpyridin-2(1H)-one]"
10 to 100,,"Cc1cc(OCC23CN(C(=O)N4CCCC5(C4)CC5(F)F)C(CNc4cccc5c(N)nccc45)(C2)C3)cc(=O)n1C (stereo not drawn) [Example 87, 4-((1-(((1-aminoisoquinolin-5-yl)amino)methyl)-2-(1,1-difluoro-5-azaspiro[2.5]octane-5-carbonyl)-2-azabicyclo[2.1.1]hexan-4-yl)methoxy)-1,6-dimethylpyridin-2(1H)-one]"
10 to 100,,"Cn1ccc(OCC23CN(C(=O)NC4C(C)(C)C4(C)C)C(CNc4cccc5c(N)nccc45)(C2)C3)cc1=O [Example 80, 1-(((1-aminoisoquinolin-5-yl)amino)methyl)-4-(((1-methyl-2-oxo-1,2-dihydropyridin-4-yl)oxy)methyl)-N-(2,2,3,3-tetramethylcyclopropyl)-2-azabicyclo [2.1.1]hexane-2-carboxamide]"
10 to 100,,"Cn1ccc(OCC23CN(C(=O)N[C@@H](c4ccccc4)C(F)(F)F)C(CNc4cccc5c(N)nccc45)(C2)C3)cc1=O [Example 88, (S)-1-(((1-aminoisoquinolin-5-yl)amino)methyl)-4-(((1-methyl-2-oxo-1,2-dihydropyridin-4-yl)oxy)methyl)-N-(2,2,2-trifluoro-1-phenylethyl)-2-azabicyclo [2.1.1]hexane-2-carboxamide]"
,H1 (>20% inhibition @ 40 μM),"Cc1cc(OCC23CN(C(=O)NC4(c5ccccc5)CC4)C(CNc4ccccc4C#N)(C2)C3)cc(=O)n1C [Example 68, 1-(((2-cyanophenyl)amino)methyl)-4-(((1,6-dimethyl-2-oxo-1,2-dihydropyridin-4-yl)oxy)methyl)-N-(1-phenylcyclopropyl)-2-azabicyclo[2.1.1]hexane-2-carboxamide]"
10 to 100,,"CN(CC1CC1)C(=O)N1CC2(COc3ccn(C)c(=O)c3)CC1(CNc1cccc3c(N)nccc13)C2 [Example 53, 1-(((1-aminoisoquinolin-5-yl)amino)methyl)-N-(cyclopropylmethyl)-N-methyl-4-(((1-methyl-2-oxo-1,2-dihydropyridin-4-yl)oxy)methyl)-2-azabicyclo[2.1.1]hexane-2-carboxamide]"
10 to 100,,"C[C@H](NC(=O)N1CC2(COc3ccn(C)c(=O)c3)CC1(CNc1cccc3c(N)nccc13)C2)c1ccccc1 [Example 32, (S)-1-(((1-aminoisoquinolin-5-yl)amino)methyl)-4-(((1-methyl-2-oxo-1,2-dihydropyridin-4-yl)oxy)methyl)-N-(1-phenylethyl)-2-azabicyclo[2.1.1]hexane-2-carboxamide]"
10 to 100,,"Cc1cc(OCC23CN(C(=O)N4CCCC5(CC5)C4)C(CNc4cccc5c(N)nccc45)(C2)C3)cc(=O)n1C [Example 84, 4-((1-(((1-aminoisoquinolin-5-yl)amino)methyl)-2-(5-azaspiro[2.5]octane-5-carbonyl)-2-azabicyclo[2.1.1]hexan-4-yl)methoxy)-1,6-dimethylpyridin-2(1H)-one]"
10 to 100,,"Cn1ccc(OCC23CN(C(N)=O)C(CNc4cccc5c(N)nccc45)(C2)C3)cc1=O [Example 63, 1-(((1-Aminoisoquinolin-5-yl)amino)methyl)-4-(((1-methyl-2-oxo-1,2-dihydropyridin-4-yl)oxy)methyl)-2-azabicyclo[2.1.1]hexane-2-carboxamide]"
10 to 100,,"Cc1cc(OCC23CN(C(=O)N(C)[C@@H]4CCOC4)C(CNc4cccc5c(N)nccc45)(C2)C3)cc(=O)n1C [Example 40, (R)-1-(((1-aminoisoquinolin-5-yl)amino)methyl)-4-(((1,6-dimethyl-2-oxo-1,2-dihydropyridin-4-yl)oxy)methyl)-N-methyl-N-(tetrahydrofuran-3-yl)-2-azabicyclo [2.1.1]hexane-2-carboxamide]"
10 to 100,,"CO[C@H]1CC[C@@H](CC(=O)N2CC3(COc4cc(C)n(C)c(=O)c4)CC2(CNc2cccc4c(N)nccc24)C3)CC1 (single isomer, unassigned) [Example 25, 4-((1-(((1-aminoisoquinolin-5-yl)amino)methyl)-2-(2-((1s,4s)-4-methoxycyclohexyl)acetyl)-2-azabicyclo[2.1.1]hexan-4-yl)methoxy)-1,6-dimethylpyridin-2(1H)-one]"
